Columns and labels:
[1] = system: CT26.CL25 colon cancer tumor endothelial cells; experiment: Colon CT26 ex vivo model of tumor angiogenesis; assay type: cell-based, mouse
Procedure, shortened: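 Cell death was read by FDA (live, green) and PI (dead, red) fluorescence imaging, e.g. 48 h after treatment. Treatment began once endothelial cells had grown out of Matrigel-embedded CT26 colon tumor fragments, typically after 7 days of culture in endothelial growth medium at 37 °C.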

[2] = system: LL/2 lung cancer tumor endothelial cells; experiment: Lung LL2 ex vivo model of tumor angiogenesis; assay type: cell-based, mouse; conditions: for 48 hrs (morphology observations): LL/2 tumor endothelial cells; for Cell death: drug treatment for two days, ratio of red area to total endothelial cell area; for cytotoxicity at 40 µM / cytotoxicity at 20 µM: Mus musculus, Endothelial cell, 48 h, read-out: Cell death
Procedure, shortened: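 Live/dead imaging with FDA and PI, taken e.g. 48 h post-drug under fixed channel settings, measures treatment effects on endothelial cells sprouting from Lewis lung tumor explants. Explants were seeded in Matrigel drops and grown ~4 days in endothelial growth medium, 37 °C, 5% CO2, before dosing.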

PLXDC1 = molecular target: T1, PLXDC1 (Homo sapiens, UniProt Q8IUK5); experiment: Gfi1b promotor luciferase receptor activation assay, PLXDC1-expressing cells (FIG. 18A, 19); assay type: cell-based; conditions: compound treatments 1 day; basal activity defined as 1
T1 construct: expressed in transfected cells
T1 sequence (Q8IUK5 19-500): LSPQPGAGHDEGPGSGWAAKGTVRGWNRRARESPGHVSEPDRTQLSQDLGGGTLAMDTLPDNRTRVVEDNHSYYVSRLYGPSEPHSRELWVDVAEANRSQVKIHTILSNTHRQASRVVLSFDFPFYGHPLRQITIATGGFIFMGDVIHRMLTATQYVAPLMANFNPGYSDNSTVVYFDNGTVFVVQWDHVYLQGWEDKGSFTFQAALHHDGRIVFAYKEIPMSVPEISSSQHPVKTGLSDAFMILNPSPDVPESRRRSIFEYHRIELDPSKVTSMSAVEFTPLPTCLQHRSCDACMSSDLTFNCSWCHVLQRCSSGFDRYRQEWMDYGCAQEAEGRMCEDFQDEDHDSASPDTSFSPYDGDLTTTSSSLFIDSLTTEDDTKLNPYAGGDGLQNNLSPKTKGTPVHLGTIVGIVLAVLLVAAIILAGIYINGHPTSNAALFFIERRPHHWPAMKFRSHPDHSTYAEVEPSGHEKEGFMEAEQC
Excerpt: FIG. 18A-B show activation of PLXDC1 and PLXDC2 by small molecules. […] All compound treatments were done for 1 day. Basal promotor activity of the PLXDC1-expressing cells is defined as 1.
Basal promotor activity of the PLXDC1-expressing cells is defined as 1. The basal activity of PLXDC1-expressing cells (Control) are higher than cells without PLXDC1, consistent promotor activation by the ectopic expression of the receptor without ligands.
By linking its promotor to a luciferase reporter gene, this example developed a PLXDC1 receptor activation assay.

[3] = Mus musculus, Endothelial cell, 48 h, read-out: Cell death

SMILES	48 hrs (morphology observations) ([2]; 40 μm)	48 hrs (morphology observations after 48 hours) ([1]; Conc. 10 μm)	cytotoxicity at 10 µM [1, 3] [%]	48 hrs (morphology observations) ([2]; 20 μm)	Cell death ([2]; 20 μm) [%]	other results
CCCCCCCOc1ccc(S(=O)(=O)c2cnc3ccc(SC)cc3c2N2CCC(N3CCCCC3)CC2)cc1 [Compound 219]	**** (100% of endothelial cells vesicularize in cell shape and look flattened in morphology (indicating disintegration of the cell body))	–	–	–	–	48 hrs (morphology observations after 48 hours) ([1]; Conc. 40 μm): *** (100% of endothelial cells vesicularize in cell shape); cytotoxicity at 40 µM [1, 3]: 90%; Cell death ([2]; 40 μm): 60%
CCCCCCCOc1ccc(S(=O)(=O)c2cnc3ccc([S+](C)[O-])cc3c2N2CCCN(C)CC2)cc1 (centres unmarked) [Compound 220]	**** (100% of endothelial cells vesicularize in cell shape and look flattened in morphology (indicating disintegration of the cell body))	–	–	–	–	48 hrs (morphology observations after 48 hours) ([1]; Conc. 40 μm): **** (100% of endothelial cells vesicularize in cell shape and look flattened in morphology (indicating disintegration of the cell body)); cytotoxicity at 40 µM [1, 3]: 100%; cytotoxicity at 40 µM [2]: 100%
CCCCCCCOc1ccc(S(=O)(=O)c2cnc3ccc([S+](C)[O-])cc3c2N2CCC(N3CCCCC3)CC2)cc1 (centres unmarked) [Compound 221]	**** (100% of endothelial cells vesicularize in cell shape and look flattened in morphology (indicating disintegration of the cell body))	–	–	–	–	48 hrs (morphology observations after 48 hours) ([1]; Conc. 40 μm): **** (100% of endothelial cells vesicularize in cell shape and look flattened in morphology (indicating disintegration of the cell body)); cytotoxicity at 40 µM [1, 3]: 100%; cytotoxicity at 40 µM [2]: 100%
CCCCOc1ccc(S(=O)(=O)c2cnc3ccc([S+](C)[O-])cc3c2N2CCC(N3CCC(O)(c4ccccc4)CC3)CC2)cc1 (centres unmarked) [Compound 238]	*** (more than 50% but less than 100% of endothelial cells vesicularize in cell shape)	0	10	–	–	–
CCCCOc1ccc(S(=O)(=O)c2cnc3ccc([S+](C)[O-])cc3c2N2CCC(N3CCCN(C)CC3)CC2)cc1 (centres unmarked) [Compound 241]	–	0	0	–	–	Cell death ([2]; 40 μm): 40%
CCCCCCCOc1ccc(S(=O)(=O)c2cnc3ccc([S+](C)[O-])cc3c2N2CCC(N3CCN(C)CC3)CC2)cc1 (centres unmarked) [Compound 253]	–	*** (100% of endothelial cells vesicularize in cell shape)	80	**** (100% of endothelial cells vesicularize in cell shape and look flattened in morphology (indicating disintegration of the cell body))	100	–
CCCCCCCOc1ccc(S(=O)(=O)c2cnc3ccc([S+](C)[O-])cc3c2N2CCC(N3CCCC(O)C3)CC2)cc1 (centres unmarked) [Compound 254]	–	** (more than 50% but less than 100% of endothelial cells vesicularize in cell shape)	40	*** (more than 50% but less than 100% of endothelial cells vesicularize in cell shape)	100	–
CCCCCCCOc1ccc(S(=O)(=O)c2cnc3ccc([S+](C)[O-])cc3c2N2CCCN(CCN3CCCCC3)CC2)cc1 (centres unmarked) [Compound 255]	–	0	0	* (50% or less of cells vesicularize in cell shape)	10	–
CCCCCCCOc1ccc(S(=O)(=O)c2cnc3ccc([S+](C)[O-])cc3c2N2CCC(N3CCCN(C)CC3)CC2)cc1 (centres unmarked) [Compound 256]	–	*** (100% of endothelial cells vesicularize in cell shape)	90	**** (100% of endothelial cells vesicularize in cell shape and look flattened in morphology (indicating disintegration of the cell body))	100	–
CCCCCCCOc1ccc(S(=O)(=O)c2cnc3ccc([S+](C)[O-])cc3c2N2CCC(N3CCN(CCO)CC3)CC2)cc1 (centres unmarked) [Compound 257]	–	**** (100% of endothelial cells vesicularize in cell shape and look flattened in morphology (indicating disintegration of the cell body))	100	**** (100% of endothelial cells vesicularize in cell shape and look flattened in morphology (indicating disintegration of the cell body))	–	cytotoxicity at 20 µM [2]: 100%
CCCCCCCOc1ccc(S(=O)(=O)c2cnc3ccc([S+](C)[O-])cc3c2N2CCC(N3CCC(N4CCCCC4)CC3)CC2)cc1 (centres unmarked) [Compound 258]	–	*** (100% of endothelial cells vesicularize in cell shape)	100	**** (100% of endothelial cells vesicularize in cell shape and look flattened in morphology (indicating disintegration of the cell body))	–	cytotoxicity at 20 µM [2]: 100%
CCCCCCCOc1ccc(S(=O)(=O)c2cnc3ccc([S+](C)[O-])cc3c2N2CCN(C)CC2)cc1 (centres unmarked) [Compound 259]	–	–	–	*** (more than 50% but less than 100% of endothelial cells vesicularize in cell shape)	95	48 hrs (morphology observations after 48 hours) ([1]; Conc. 20 μm): *** (100% of endothelial cells vesicularize in cell shape); cytotoxicity at 20 µM [1, 3]: 100%
O=c1[nH]cc(F)c(=O)[nH]1 [Fluorouracil, 5-fluorouracil, reference compound]	–	–	–	–	–	Gfi1b promotor activity in PLXDC1-expressing cells (PLXDC1): does not activate this promoter

From patent US20250230226A1, “PLXDC1/PLXDC2 ACTIVATORS AND THEIR USE IN THE TREATMENT OF BLOOD VESSEL DISORDERS” (THE REGENTS OF THE UNIVERSITY OF CALIFORNIA, priority 2019, published 2025)
